Results reported in patent US11167039B2, “MET antibody drug conjugates” (priority 2016, dated 2021).
“Also recorded” adds a separate entry of the source.

Tests used:
[1] = system: HT-29 colon cancer tumor xenografts; experiment: HT-29 mouse xenograft model; type: in vivo; settings: 1 mg/kg x3 Q7D
Protocol: Female athymic nude mice age 6- to 7-weeks old are available commercially, including from Harlan Laboratories (Indianapolis, Ind.). The mice are allowed to acclimate for one week and fed ad libitum on a normal low fat (4.5%) diet, which may be continued for the duration of the study. Tumor cells may be purchased from ATCC and may be cultured in cell culture media such as RPMI 1640 (Life Technologies) with L-glutamine, 25 mM HEPES supplemented with 10% FBS and 1 mM Na Pyruvate. Cells may be detached, washed with serum free medium and then resuspended at a final concentration of 50×10^6 cells/mL in serum free RPMI 1640. Tumor cells, approximately 5×10^6, may be injected subcutaneously in the rear flank of subject mice in a 1:1 mixture of serum free growth medium and Matrigel (Becton Dickinson, Bedford, Mass.). Tumor and body weight measurements may be performed twice weekly. Prior to treatment, mice can be randomized based on tumor size using a randomization algorithm. Treatments may be started when the average tumor volume reaches 100 mm^3. […]
MET-ADCs and control hIgG4-MMAE may be prepared in Phosphate Buffered Saline (PBS) prior to dose. Tumor size may be determined by caliper measurements. […] Tumor volume data can be transformed to a log scale to equalize variance across time and treatment groups. Log volume data can be analyzed with two-way repeated measures ANOVA by time and treatment using SAS PROC MIXED software (SAS Institutes Inc, Cary, N.C.). Treatment groups are compared with the specified control group at each time point.

MiaPaca-2 = experiment: Cell killing, MiaPaca-2; type: cell-based, human; design: key: Sensitive; Resistant; settings: MiaPaca-2, PANC Ca
Protocol: (§1) Briefly described, 2-3×10^3 cells/well in 100 μL of culture medium may be plated in 96 well plates and incubated overnight at 37° C., 5% CO2. The MET-ADCs, MET antibody(ies), control MMAE or control hIgG4 conjugated to MMAE with cysteine conjugation antibody(ies) may be diluted 1:3 in serum-free culture medium starting from 100 nM (final) in 50 μL as 3× concentrations to the HT-29 cells. At the end of an additional 5-6 days of cell growth at 37° C. in a humidified incubator with 5% CO2, the plates may be equilibrated to room temperature for 30 minutes and 100 μL/well of CellTiter-Glo® reagent (Promega Corp., Fitchburg, Wis.) may then be added to assess cell viability. Cell viability may be determined by measuring luminescence.
(§2) Various tumor cell lines and normal human cells may be tested for MET-ADC induced cell killing activity essentially as described above in Example 10 as assessed for MET receptor density. MET cell surface density was determined by indirect immunofluorescence staining of cell surface antigens on cultured cells using QIFIKIT (Dako). […] Following a forty-five minute incubation, cells may be incubated for 1 hour on ice with FITC conjugated antibody diluted 1:50 in FACS buffer. Then cells may be washed and receptor numbers may be determined by indirect immunofluorescence staining of the QIFIKIT beads using a Becton Dickinson LSRII flow cytometer.

[2] = system: pancreatic cancer PDX tumors; experiment: Pancreatic cancer patient-derived xenograft (PDX) models; type: in vivo, mouse; settings: 5 mg/kg weekly, four doses
Source text: Body weight can also be assessed regularly.
Pancreatic tumors are known in the art to overexpress MET and have more than 90% KRAS mutations (Yabar, C. S. and Winter, J. M., Gastroenterol Clin N Am 45: 429-445 (2016)). Pancreatic tumor samples from 40 human pancreatic cancer patients were individually implanted into different immunocompromised mice (i.e., each mouse carried one tumor derived from a patient's […] tumor) essentially as described above in this Example 12.

GEO = experiment: Cell killing, GEO; type: cell-based, human; design: key: Sensitive; Resistant; settings: Colorectal Ca
Protocol: as §1, §2

HT-29 cells = experiment: HT-29 cell-killing assay; type: cell-based, human; design: key to Sensitive/ Resistant: Sensitive; Resistant
Protocol: Therefore, the HT-29 cell line may be used to determine if test MET-ADCs can kill MET overexpressing tumor cells in vitro.
as §1, §2

BxPC-3 = experiment: Cell killing, BxPC-3; type: cell-based, human; design: key: Sensitive; Resistant; settings: BxPC-3, PANC Ca
Protocol: as §1, §2

Su.86.86 = experiment: Cell killing, Su.86.86; type: cell-based, human; design: key: Sensitive; Resistant; settings: Su.86.86, PANC Ca
Protocol: as §1, §2

Question: With “MET-ADC#1: emibetuzumab lysine-conjugated via (2,5-dioxopyrrolidin-1-yl) 2-azidoacetate and Octyne-β-Glucn-MMAE” as the substance, how does the “Observation (efficacy in HT-29 mouse xenograft)” value [1] read?
Answer: Its value is “Tumor regression^”.

Question: And the “Observation (efficacy in HT-29 mouse xenograft)” value ([1]; listed as MET-ADC #1)?
Answer: Its value is “far superior efficacy”.

Question: And the “Sensitive/ Resistant” value (MiaPaca-2)?
Answer: The value was “R”.

Question: And the “DCR: disease control rate (CR+PR+SD over total 40)” value [2]?
Answer: Its value is 60%.

Question: What about the “PD: progressive disease (% Delta T/C>10%), number of PDX” value ([2]; total 40) of the same substance?
Answer: Its value is 16.

Question: And the “PR: partial response (% Regression<=−50% and tumor volume>14 mm^3), number of PDX” value ([2]; total 40)?
Answer: Its value is 9.

Question: What about the “effect on volume of pancreatic cancer PDX tumors” value ([2]; vs control hIgG4-ADC) of the same substance?
Answer: The value was “profoundly reduced the volume of the pancreatic cancer PDX tumors”.

Question: What about the “Sensitive/ Resistant” value (GEO) of the same substance?
Answer: Its value is “R”.

Question: And the “Sensitive/ Resistant” value (HT-29 cells; HT29, Colorectal Ca)?
Answer: Its value is “S”.

Question: And the “cell killing activity in HT-29 cells” value (HT-29 cells; HT-29 cells)?
Answer: Its value is “kills MET expressing HT-29 tumor cells better than the parental anti-MET antibody, emibetuzumab, free MMAE, or a combination of emibetuzumab and free MMAE; also recorded: highly potent in killing HT-29 cells”.

Question: And the “greater potency in killing HT-29 tumors cells as compared to ABBV-399” value (HT-29 cells; HT-29 cells)?
Answer: Its value is 200 fold.

Question: What about the “Sensitive/ Resistant” value (BxPC-3) of the same substance?
Answer: Its value is “S”.

Question: What about the “Sensitive/ Resistant” value (Su.86.86) of the same substance?
Answer: Its value is “R”.
